Data reported in the NIST ThermoML archive (doi:10.1016/j.jct.2013.01.006).

Conditions: Liquid, Vibrating tube method

FCC(F)(F)F [1,1,1,2-tetrafluoroethane]
Conditions	mass density [kg/m3]
283.52 K, 1010 kPa	1262.83
283.53 K, 5000 kPa	1279.7
283.54 K, 10000 kPa	1298.2
283.54 K, 20000 kPa	1329.16
283.54 K, 39990 kPa	1376.78
283.54 K, 60010 kPa	1413.66
283.54 K, 80020 kPa	1444.29
303.26 K, 1000 kPa	1188.74
303.27 K, 5000 kPa	1212.6
303.28 K, 10000 kPa	1237.15
303.29 K, 19980 kPa	1275.91
303.29 K, 40010 kPa	1332.33
303.3 K, 60000 kPa	1374.15
303.3 K, 79980 kPa	1408.2
323.07 K, 1280 kPa	1102.44
323.08 K, 5000 kPa	1136.68
323.08 K, 10000 kPa	1170.98
323.09 K, 20000 kPa	1220.67
323.11 K, 60000 kPa	1335.02
323.11 K, 80000 kPa	1372.84
323.12 K, 40000 kPa	1287.6
343.02 K, 10000 kPa	1097
343.02 K, 20000 kPa	1162.16
343.02 K, 39990 kPa	1241.93
343.02 K, 60010 kPa	1295.73
343.03 K, 4990 kPa	1045.24
343.03 K, 80010 kPa	1337.58
343.05 K, 2090 kPa	997.14
362.95 K, 5000 kPa	921.91
362.95 K, 10000 kPa	1012.79
362.96 K, 20000 kPa	1101.23
362.97 K, 40000 kPa	1196.59
362.98 K, 60000 kPa	1257.2
362.99 K, 80000 kPa	1302.95

C=C(F)C(F)(F)F [2,3,3,3-tetrafluoro-1-propene]
Conditions	mass density [kg/m3]
283.5 K, 3000 kPa	1155.63
283.5 K, 5000 kPa	1165.27
283.51 K, 1000 kPa	1145.11
283.51 K, 10000 kPa	1186.43
283.51 K, 15000 kPa	1204.63
283.52 K, 20000 kPa	1220.62
283.52 K, 25000 kPa	1235
283.53 K, 30000 kPa	1248.1
283.53 K, 40000 kPa	1271.31
283.53 K, 50000 kPa	1291.52
283.53 K, 60000 kPa	1309.52
283.53 K, 69990 kPa	1325.92
283.54 K, 79990 kPa	1340.69
283.54 K, 89990 kPa	1354.31
283.54 K, 99990 kPa	1367.01
293.42 K, 100000 kPa	1352.4
293.43 K, 1000 kPa	1111.44
293.43 K, 3000 kPa	1123.79
293.43 K, 5000 kPa	1134.97
293.43 K, 80000 kPa	1324.88
293.43 K, 89990 kPa	1339.25
293.44 K, 10000 kPa	1159.05
293.44 K, 15000 kPa	1179.37
293.44 K, 20000 kPa	1196.95
293.44 K, 70000 kPa	1309.56
293.45 K, 25000 kPa	1212.64
293.45 K, 30000 kPa	1226.8
293.45 K, 40000 kPa	1251.77
293.45 K, 50000 kPa	1273.28
293.45 K, 60000 kPa	1292.28
303.3 K, 1000 kPa	1077.2
303.3 K, 3000 kPa	1092.22
303.3 K, 5000 kPa	1105.38
303.3 K, 10000 kPa	1133.08
303.3 K, 20000 kPa	1175.21
303.3 K, 25000 kPa	1192.3
303.3 K, 30000 kPa	1207.61
303.3 K, 40000 kPa	1234.24
303.3 K, 50000 kPa	1257.07
303.3 K, 60000 kPa	1277.12
303.31 K, 15000 kPa	1155.81
303.31 K, 69990 kPa	1295.36
303.31 K, 80000 kPa	1311.51
303.31 K, 90000 kPa	1326.38
303.31 K, 99990 kPa	1340.07
313.3 K, 3000 kPa	1054.12
313.3 K, 5000 kPa	1070.05
313.3 K, 10000 kPa	1102.25
313.3 K, 15000 kPa	1127.81
313.31 K, 20000 kPa	1149.23
313.31 K, 25000 kPa	1167.84
313.31 K, 30000 kPa	1184.38
313.31 K, 79990 kPa	1294.04
313.31 K, 100000 kPa	1323.74
313.32 K, 40000 kPa	1212.87
313.32 K, 50000 kPa	1237.08
313.32 K, 60000 kPa	1258.24
313.32 K, 70000 kPa	1277.17
313.32 K, 90000 kPa	1309.49
323.16 K, 30000 kPa	1163.21
323.16 K, 80000 kPa	1279.1
323.16 K, 90000 kPa	1295.16
323.16 K, 100000 kPa	1309.92
323.17 K, 3000 kPa	1014.55
323.17 K, 5000 kPa	1034.38
323.17 K, 10000 kPa	1072.33
323.17 K, 15000 kPa	1101.29
323.17 K, 20000 kPa	1125.01
323.17 K, 25000 kPa	1145.33
323.17 K, 40000 kPa	1193.69
323.17 K, 50000 kPa	1219.3
323.17 K, 60000 kPa	1241.51
323.17 K, 69990 kPa	1261.48
333.08 K, 3000 kPa	970.09
333.08 K, 5000 kPa	995.64
333.08 K, 10000 kPa	1041.18
333.08 K, 15000 kPa	1074.07
333.08 K, 20000 kPa	1100.37
333.08 K, 25000 kPa	1122.55
333.08 K, 30000 kPa	1141.81
333.08 K, 40000 kPa	1174.38
333.08 K, 50000 kPa	1201.52
333.08 K, 60000 kPa	1224.88
333.08 K, 70000 kPa	1245.82
333.08 K, 80000 kPa	1264.16
333.08 K, 90000 kPa	1280.84
333.08 K, 99990 kPa	1296.14
343.03 K, 25000 kPa	1099.43
343.04 K, 30000 kPa	1120.26
343.04 K, 40000 kPa	1155.06
343.05 K, 50000 kPa	1183.7
343.05 K, 60000 kPa	1208.19
343.05 K, 70000 kPa	1230.04
343.05 K, 80000 kPa	1249.14
343.05 K, 90000 kPa	1266.4
343.06 K, 15000 kPa	1045.88
343.06 K, 20000 kPa	1075.15
343.06 K, 100000 kPa	1282.22
343.07 K, 3000 kPa	917.18
343.07 K, 5000 kPa	952.33
343.07 K, 10000 kPa	1008.02
353.02 K, 3000 kPa	849.05
353.02 K, 99990 kPa	1268.7
353.03 K, 5000 kPa	902.77
353.03 K, 10000 kPa	973.22
353.03 K, 15000 kPa	1016.73
353.03 K, 20000 kPa	1049.45
353.03 K, 25000 kPa	1075.98
353.03 K, 30000 kPa	1098.53
353.03 K, 40000 kPa	1135.71
353.03 K, 50000 kPa	1166.05
353.03 K, 60000 kPa	1191.81
353.03 K, 69990 kPa	1214.55
353.03 K, 79990 kPa	1234.41
353.03 K, 89990 kPa	1252.33
362.96 K, 5000 kPa	843.74
362.96 K, 10000 kPa	936.17
362.96 K, 15000 kPa	986.89
362.96 K, 20000 kPa	1023.49
362.96 K, 25000 kPa	1052.55
362.96 K, 30000 kPa	1076.97
362.96 K, 40000 kPa	1116.69
362.96 K, 50000 kPa	1148.71
362.96 K, 60000 kPa	1175.67
362.96 K, 70000 kPa	1199.47
362.96 K, 80000 kPa	1220.08
362.96 K, 89990 kPa	1238.55
362.96 K, 100000 kPa	1255.48
